Test results from patent US11666583B2, “Methods of treating cortical dementia associated wandering” (WOOLSEY PHARMACEUTICALS, INC., priority 2020, dated 2023).
Structures can show the parent of a compound that is named as a salt.

Legend:
[1] = 1-hydroxy (M3) metabolite; cited from earlier work
[2] = target: p38 mitogen-activated protein kinase (Homo sapiens, UniProt Q16539); conditions: cited from earlier work
[3] = tested on: patients with wandering due to VaD; conditions: cited from earlier work
[4] = tested on: triple transgenic mouse model (APP Swedish, MAPT P301L, and PSEN1 M146V); conditions: 10 mg/kg/day intraperitoneally; cited from earlier work
[5] = tested on: patients with Alzheimer's Dementia (AD) and cortical vascular dementia (VaD); assay: Clinical trial of oral fasudil on frequency of wandering (Example 1); format: in vivo, human
Text: Twenty patients, 10 with AD and 10 with VaD (confirmed by […]) who are characterized wanderers, are enrolled into the study and observed for 2 weeks to confirm wandering behavior. […] The double-blind phase is followed by another treatment period of 6 weeks with the opposite treatment assignment (placebo or test drug taken with food).
• a. Walks distinctly more than average as others of same age and ability AND/OR • b. Elopement behavior≥3× per week in the opinion of the investigator Criteria for Entering First Double-Blind Treatment Period: Wanders: • a. Walks less than half the mean distance measured in observation period AND/OR • b. Elopement behavior<1× per week in the opinion of the investigator AND/OR • c. Wandering has improved in the opinion of the Investigator. 4. For entering observation period and for entering open label treatment period: • a. MMSE between 10 and 25.
Wandering is measured in term of time in motion and distance traveled (measures of persistent wandering), attempted and successful boundary transgressions (measures of elopement) and patterns like pacing a lapping (indicative of persistent wandering and/or agitation or anxiety) using an electronic tracking device. A typical tracking device would use a combination of accelerometry with positioning, using technology like RFID or Bluetooth in an indoor environment and GPS outdoors. Other wayfinding, orientation and memory-associated wandering incidents are observed and recorded manually.
The Mini Mental State Exam (MMSE), the Woolsey Wandering Questionnaire and the Revised Algase Wandering Scale are administered at baseline and at the end of each treatment period. Any change in the use of antipsychotics or anxiolytics that could affect movement during the study is strongly discouraged.

[6] = tested on: triple transgenic mice; conditions: 30 mg/kg and 100 mg/kg in water, 10 or 12 months of age; cited from earlier work
[7] = tested on: APP/PS1 transgenic mice; conditions: 5 and 10 mg/kg/day intraperitoneally; cited from earlier work
[8] = tested on: streptozotocin rats; conditions: 5 and 10 mg/kg/day intraperitoneally; cited from earlier work

Chain of p38 mitogen-activated protein kinase (Q16539 whole entry): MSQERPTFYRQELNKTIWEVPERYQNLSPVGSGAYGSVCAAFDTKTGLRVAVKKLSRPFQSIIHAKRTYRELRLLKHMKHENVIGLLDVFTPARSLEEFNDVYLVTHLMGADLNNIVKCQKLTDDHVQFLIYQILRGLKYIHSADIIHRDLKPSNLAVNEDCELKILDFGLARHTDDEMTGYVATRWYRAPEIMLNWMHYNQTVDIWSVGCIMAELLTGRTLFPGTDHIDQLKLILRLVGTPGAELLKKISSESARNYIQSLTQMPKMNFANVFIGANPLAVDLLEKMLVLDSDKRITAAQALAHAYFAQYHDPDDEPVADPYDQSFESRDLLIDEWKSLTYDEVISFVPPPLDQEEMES

For `O=S(=O)(c1cccc2c(O)nccc12)N1CCCNCC1` [M3], the half-life [1] is given as “about 8 hours”.

In the case of `O=c1ncn2nc(Sc3ccc(F)cc3F)ccc2c1-c1c(Cl)cccc1Cl` [Neflamapimod], the “primary endpoint of improving episodic memory” value ([2]; Phase 2) is listed as “failed”, the “tau in the cerebrospinal fluid” value ([2]; Phase 2) is listed as “reducing tau” and the Aβ deposition ([2]; humans) is listed as “no effect”.

For `O=S(=O)(c1cccc2cnccc12)N1CCCNCC1` [fasudil, Hexahydro-1-(5-isoquinolinesulfonyl)-1H-1,4-diazepine monohydrochloride hemihydrate], the wandering symptoms ([3]; patient with Binswanger-type cerebral infarction, within weeks of beginning treatment) is given as “disappeared and remained absent for the duration of treatment”, the wayfinding symptoms ([3]; patient with sequelae of cerebral bleeding and multiple lacunar infarctions (lacunar dementia)) is given as “disappeared quickly and remained absent for the duration of treatment” and the “ß-amyloid plaques in vivo” value [4] is given as “reduce ß-amyloid plaques”. The “measures of caregiver burden” value ([5]; on drug, 90 mg/day) was “significant effect”, the “reduction in wandering, at least one item of the RAWS and/or the WWQ” value ([5]; oral 90 mg/day (30 mg TID), 6 weeks, AD and cortical VaD wanderers) was “significant reduction” and the “mean increase in MMSE score” value ([5]; persistent wanderers, 90 mg/day) was “greater than 3 points”. For the same compound, the “reduction of activity levels” value ([5]; persistent wanderers, on drug as compared to placebo, 90 mg/day) was “about 50%”, the “wayfinding errors and other problematic behaviors” value ([5]; sporadic wanderers, while on drug) was “significant reduction” and the spatial memory [6] was “did not observe improvements”. For the same compound, the “latency distance and quadrant time in the Morris water maze” value [7] was “improved” and the “latency distance and quadrant time in the Morris water maze” value [8] was “improved”.
